Results taken from US20210317134A1, “UBIQUITIN-SPECIFIC-PROCESSING PROTEASE 7 (USP7) MODULATORS AND USES THEREOF” (RAPT THERAPEUTICS, INC., priority 2019, published 2021).

Molecular target: USP7 (Homo sapiens, UniProt Q93009)
Assay: USP7 inhibitory potency (Table 1)
Type: biochemical

USP7, sequence (Q93009 whole entry): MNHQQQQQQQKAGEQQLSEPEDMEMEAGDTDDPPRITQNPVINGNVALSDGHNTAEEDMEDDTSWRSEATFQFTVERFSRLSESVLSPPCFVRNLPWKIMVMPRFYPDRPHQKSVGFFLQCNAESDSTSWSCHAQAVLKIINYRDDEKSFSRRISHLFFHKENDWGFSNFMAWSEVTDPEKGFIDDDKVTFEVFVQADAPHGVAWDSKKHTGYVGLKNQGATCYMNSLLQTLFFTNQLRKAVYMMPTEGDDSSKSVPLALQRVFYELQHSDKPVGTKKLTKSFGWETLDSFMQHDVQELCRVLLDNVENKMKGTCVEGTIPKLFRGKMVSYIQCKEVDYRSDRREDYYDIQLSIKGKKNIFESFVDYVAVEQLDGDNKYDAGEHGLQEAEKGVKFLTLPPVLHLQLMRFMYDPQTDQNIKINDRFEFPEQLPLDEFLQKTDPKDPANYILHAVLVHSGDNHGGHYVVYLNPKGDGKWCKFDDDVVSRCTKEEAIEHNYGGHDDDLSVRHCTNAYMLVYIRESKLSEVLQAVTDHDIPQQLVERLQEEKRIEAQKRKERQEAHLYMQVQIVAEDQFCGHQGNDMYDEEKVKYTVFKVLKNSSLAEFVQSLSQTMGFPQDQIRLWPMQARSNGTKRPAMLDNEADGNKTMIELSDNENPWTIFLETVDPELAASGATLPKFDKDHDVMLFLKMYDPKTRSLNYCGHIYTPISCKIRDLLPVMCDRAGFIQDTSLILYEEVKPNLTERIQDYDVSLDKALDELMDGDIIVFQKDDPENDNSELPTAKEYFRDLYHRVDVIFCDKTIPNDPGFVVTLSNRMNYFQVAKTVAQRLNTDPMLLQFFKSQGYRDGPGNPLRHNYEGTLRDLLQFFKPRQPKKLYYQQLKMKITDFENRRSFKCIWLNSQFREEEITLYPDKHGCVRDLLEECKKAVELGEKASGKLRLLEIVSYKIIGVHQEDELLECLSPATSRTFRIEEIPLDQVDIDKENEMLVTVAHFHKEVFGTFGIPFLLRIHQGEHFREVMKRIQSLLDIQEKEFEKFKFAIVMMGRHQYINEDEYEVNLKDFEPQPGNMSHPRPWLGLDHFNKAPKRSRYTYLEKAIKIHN

SMILES	IC50
C[C@@H]1C[C@H](NC(=O)C2Cc3cc(Cl)cc(-c4ccnc5[nH]ccc45)c3O2)CCN1 (stereo partly drawn) [5-chloro-N-((2R,4R)-2-methylpiperidin-4-yl)-7-(1H-pyrrolo[2,3-b]pyridin-4-yl)-2,3-dihydrobenzofuran-2-carboxamide]	1000 to 10000 nM
OCc1cc2nccc(-c3cc(Cl)cc4c3OC(c3nnn5c3CNCC5)C4)c2s1 (stereo not shown) [(7-(5-chloro-2-(4,5,6,7-tetrahydro-[1,2,3]triazolo[1,5-a]pyrazin-3-yl)-2,3-dihydrobenzofuran-7-yl)thieno[3,2-b]pyridin-2-yl)methanol]	1000 to 10000 nM
N#CCC(O)c1cc2nccc(-c3cc(Cl)cc4c3O[C@@H](C(=O)N3CCNCC3)C4)c2s1 (stereo partly drawn) [3-(7-((R)-5-chloro-2-(piperazine-1-carbonyl)-2,3-dihydrobenzofuran-7-yl)thieno[3,2-b]pyridin-2-yl)-3-hydroxypropanenitrile]	< 1000 nM
CCC(O)c1cc2nccc(-c3cc(Cl)cc4c3O[C@@H](C(=O)N3CCC(c5cnc[nH]5)CC3)C4)c2s1 (stereo partly drawn) [(4-(1H-imidazol-5-yl)piperidin-1-yl)((2R)-5-chloro-7-(2-(1-hydroxypropyl)thieno[3,2-b]pyridin-7-yl)-2,3-dihydrobenzofuran-2-yl)methanone]	1000 to 10000 nM
CN(C)C1CCc2nn(C)c([C@H]3Cc4cc(Cl)cc(-c5ccnc6cc(CO)sc56)c4O3)c2C1 (stereo partly drawn) [(7-((2R)-5-chloro-2-(5-(dimethylamino)-2-methyl-4,5,6,7-tetrahydro-2H-indazol-3-yl)-2,3-dihydrobenzofuran-7-yl)thieno[3,2-b]pyridin-2-yl)methanol]	< 1000 nM
O=C(C1Cc2cc(Cl)cc(-c3ccnc(NCc4ccccc4)c3)c2O1)N1CCNCC1 (stereo not shown) [(7-(2-(benzylamino)pyridin-4-yl)-5-chloro-2,3-dihydrobenzofuran-2-yl)(piperazin-1-yl)methanone]	1000 to 10000 nM
Cc1c(-c2cc(Cl)cc3c2OC(C(=O)N2CCNCC2)C3)ccnc1N (stereo not shown) [(7-(2-amino-3-methylpyridin-4-yl)-5-chloro-2,3-dihydrobenzofuran-2-yl)(piperazin-1-yl)methanone]	1000 to 10000 nM

Further lines, results first:

IC50	SMILES
1000 to 10000 nM	CCCC1(CO)Cc2nccc(-c3cc(Cl)cc4c3O[C@@H](C(=O)N3CCNCC3)C4)c2C1 (stereo partly drawn) [((2R)-5-chloro-7-(6-(hydroxymethyl)-6-propyl-6,7-dihydro-5H-cyclopenta[b]pyridin-4-yl)-2,3-dihydrobenzofuran-2-yl)(piperazin-1-yl)methanone]
< 1000 nM	Clc1cc2c(c(-c3ccnc4c3CC3(COCOC3)C4)c1)O[C@@H](c1onc3c1CNCC3)C2 [(R)-4-(5-chloro-2-(4,5,6,7-tetrahydroisoxazolo[4,3-c]pyridin-3-yl)-2,3-dihydrobenzofuran-7-yl)-5,7-dihydrospiro[cyclopenta[b]pyridine-6,5′-[1,3]dioxane]]
< 1000 nM	CC(=O)NC(C)c1cc2nccc(-c3cc(Cl)cc4c3O[C@@H](C(=O)N3CCNCC3)C4)c2s1 (stereo partly drawn) [N-(1-(7-((R)-5-chloro-2-(piperazine-1-carbonyl)-2,3-dihydrobenzofuran-7-yl)thieno[3,2-b]pyridin-2-yl)ethyl)acetamide]
< 1000 nM	CS(=O)(=O)NCCc1cc2nccc(-c3cc(Cl)cc4c3O[C@@H](C(=O)N3CCNCC3)C4)c2s1 [(R)-N-(2-(7-(5-chloro-2-(piperazine-1-carbonyl)-2,3-dihydrobenzofuran-7-yl)thieno[3,2-b]pyridin-2-yl)ethyl)methanesulfonamide]
< 1000 nM	O=C([C@H]1Cc2cc(Cl)cc(-c3ccnc4cc(CN5C(=O)CNC5=O)sc34)c2O1)N1CCNCC1 [(R)-3-((7-(5-chloro-2-(piperazine-1-carbonyl)-2,3-dihydrobenzofuran-7-yl)thieno[3,2-b]pyridin-2-yl)methyl)imidazolidine-2,4-dione]
< 1000 nM	Cn1nc2c(c1[C@H]1Cc3cc(Cl)cc(-c4ncnc5ccoc45)c3O1)CNCC2 [(R)-4-(5-chloro-2-(2-methyl-4,5,6,7-tetrahydro-2H-pyrazolo[4,3-c]pyridin-3-yl)-2,3-dihydrobenzofuran-7-yl)furo[3,2-d]pyrimidine]
